Each compound was assayed on Per2-dLuc U2OS reporter cells (assay: Per2 assay for evaluating the potency of test compounds (high-throughput circadian assay)). Conditions: Homo sapiens, U2OS, stable U2OS reporter cells harboring Per2-dLuc; luminescence monitored over 4-5 days at 35° C.
Type: cell-based
Method: Compounds were screened by using a high-throughput circadian assay system as previously described in Zhang, E. E. et al. Cell, 2009, 139, 199-210. In brief, stable U2OS reporter cells harboring Per2-dLuc were plated at a density of 8,000 cells/well in Corning 96-well, solid white, flat bottom, TC-treated microplates (Corning®), and incubated for 24 hours at 37° C. in the presence of 5% CO2. The cells were then synchronized by serum shock by media exchange to a minimal explant media (10 mM HEPES (pH 7.0), 2% B27, 1×PSG (Invitrogen®), and 1.0 mM beetle luciferin (Promega®)) followed by the addition of the compounds of formula I dissolved in dimethylsulfoxide (0.5% final dimethylsulfoxide concentration). Gene expression was monitored by measuring luminescence (TecanR M200) over 4-5 days at 35° C. The period, amplitude, and phase of the associated circadian rhythms were determined using Multicycle™ software (Actimetrics, Inc). EC50 values of the compounds of formula I were calculated using Graphpad™ (Prism®).
Compound `CS(=O)(=O)N(Cc1ccco1)CC(O)Cn1c2ccc(F)cc2c2c(F)cccc21` (centres unmarked) [Compound 109, N-(3-(3,5-Difluoro-9H-carbazol-9-yl)-2-hydroxypropyl)-N-(furan-2-ylmethyl)methanesulfonamide] has an EC50 of 7420 nM.
For `CC(C)N1CCN(CC(C)(O)Cn2c3ccc(F)cc3c3cc(F)ccc32)S1(=O)=O` (centres unmarked) [Compound 225], the EC50 was 3090 nM.
In the case of `CS(=O)(=O)N(CC(O)Cn1c2ccccc2c2ccccc21)CC1CC2CCC1O2` (single isomer, unassigned) [Compound 69, N-(7-Oxabicyclo[2.2.1]heptan-2-ylmethyl)-N-(3-(9H-carbazol-9-yl)-2-hydroxypropyl)methanesulfonamide], the EC50 is reported as 759 nM.
In the case of `CN(CC(O)Cn1c2ccc(F)cc2c2cc(F)ccc21)S(C)(=O)=O` (centres unmarked) [Compound 89, N-(3-(3,6-Difluoro-9H-carbazol-9-yl)-2-hydroxypropyl)-N-methylmethanesulfonamide], the EC50 is reported as 360 nM.
In the case of `COC1CN(CC(O)Cn2c3ccc(F)cc3c3cc(F)ccc32)S(=O)(=O)C1` (centres unmarked) [Compound 181, 2-(3-(3,6-Difluoro-9H-carbazol-9-yl)-2-hydroxypropyl)-4-methoxyisothiazolidine-1,1-dioxide], the EC50 is reported as 174 nM.
Work on `CC(O)(CN1CCNS1(=O)=O)Cn1c2ccc(F)cc2c2cc(F)ccc21` (centres unmarked) [Compound 176] yielded an EC50 of 125 nM.
Compound `CC(CN(CC(O)Cn1c2ccccc2c2ccccc21)S(C)(=O)=O)c1ccccc1` (centres unmarked) [Compound 70, N-(3-(9H-Carbazol-9-yl)-2-hydroxypropyl)-N-(2-phenylpropyl)methanesulfonamide] has an EC50 of 8970 nM.
Work on `CC(O)(CN1CCCS1(=O)=O)Cn1c2ccc(F)cc2c2cc(F)ccc21` (centres unmarked) [Compound 115, 2-(3-(3,6-Difluoro-9H-carbazol-9-yl)-2-hydroxy-2-methylpropyl)-isothiazolidine-1,1-dioxide] yielded an EC50 of 232 nM.
Compound `CS(=O)(=O)N(CC(O)Cn1c2ccccc2c2ccccc21)C1CCCCC1` (centres unmarked) [Compound 71, N-(3-(9H-Carbazol-9-yl)-2-hydroxypropyl)-N-cyclohexylmethanesulfonamide] has an EC50 of 3300 nM.
`CS(=O)(=O)N(CC(O)Cn1c2cc(F)ccc2c2ccc(F)cc21)C1CCC1` (centres unmarked) [Compound 160, N-Cyclobutyl-N-(3-(2,7-difluoro-9H-carbazol-9-yl)-2-hydroxypropyl)methanesulfonamide] gave an EC50 of 605 nM.
Compound `COCc1ccc(N(CC(O)Cn2c3ccc(F)cc3c3cc(F)ccc32)S(C)(=O)=O)cc1` (centres unmarked) [Compound 209, N-(3-(3,6-Difluoro-9H-carbazol-9-yl)-2-hydroxypropyl)-N-(4-(methoxymethyl)phenyl)methanesulfonamide] has an EC50 of 4810 nM.
Work on `Cc1cccc(N(CC(O)Cn2c3ccccc3c3ccccc32)S(C)(=O)=O)c1` (centres unmarked) [Compound 63, N-(3-(9H-Carbazol-9-yl)-2-hydroxypropyl)-N-m-tolylmethanesulfonamide] yielded an EC50 of 199 nM.
Work on `CS(=O)(=O)NCC(O)Cn1c2ccc(F)cc2c2ccc(F)cc21` (centres unmarked) [Compound 168, N-(3-(2,6-Difluoro-9H-carbazol-9-yl)-2-hydroxypropyl)methanesulfonamide] yielded an EC50 of 391 nM.
Compound `CN1CCCN(CC(O)Cn2c3ccccc3c3ccccc32)S1(=O)=O` (centres unmarked) [Compound 124, 2-(3-(9H-Carbazol-9-yl)-2-hydroxypropyl)-6-methyl-1,2,6-thiadiazinane-1,1-dioxide] has an EC50 of 154 nM.
With `CS(=O)(=O)N(Cc1ccco1)CC(O)Cn1c2ccccc2c2cccc(F)c21` (centres unmarked) [Compound 236, N-(3-(1-Fluoro-9H-carbazol-9-yl)-2-hydroxypropyl)-N-(furan-2-ylmethyl)methanesulfonamide] the EC50 was 620 nM.
`O=S1(=O)CCCCN1CC(O)Cn1c2cc(F)ccc2c2c(F)cccc21` (centres unmarked) [Compound 96, N-(3-(2,5-Difluoro-9H-carbazol-9-yl)-2-hydroxypropyl)-1,2-thiazinane 1,1-dioxide] was tested, and the EC50 was 456 nM.
In the case of `CS(=O)(=O)N(CC(O)Cn1c2ccccc2c2ccccc21)c1cccc(C#N)c1` (centres unmarked) [Compound 72, N-(3-(9H-Carbazol-9-yl)-2-hydroxypropyl)-N-(3-cyanophenyl)methanesulfonamide], the EC50 is reported as 2580 nM.
Compound `CC(C)N(CC(O)Cn1c2cc(F)ccc2c2ccc(F)cc21)S(C)(=O)=O` (centres unmarked) [Compound 159, N-(3-(2,7-Difluoro-9H-carbazol-9-yl)-2-hydroxypropyl)-N-isopropylmethanesulfonamide] has an EC50 of 505 nM.
For `CCN(CC(O)Cn1c2cc(F)ccc2c2ccc(F)cc21)S(C)(=O)=O` (centres unmarked) [Compound 158, N-(3-(2,7-Difluoro-9H-carbazol-9-yl)-2-hydroxypropyl)-N-ethylmethanesulfonamide], the EC50 was 811 nM.
`CS(=O)(=O)N(CC(O)Cn1c2ccc(F)cc2c2cc(F)ccc21)C1CCC1` (centres unmarked) [Compound 119, N-Cyclobutyl-N-(3-(3,6-difluoro-9H-carbazol-9-yl)-2-hydroxypropyl)methanesulfonamide] was tested, and the EC50 was 37 nM.
`CC1(N(CC(O)Cn2c3ccc(F)cc3c3cc(F)ccc32)S(C)(=O)=O)CC1` (centres unmarked) [Compound 188, N-(3-(3,6-Difluoro-9H-carbazol-9-yl)-2-hydroxypropyl)-N-(1-methylcyclopropyl)methanesulfonamide] gave an EC50 of 147 nM.
`CC(O)(CN1CCCN(C2CCC2)S1(=O)=O)Cn1c2ccc(F)cc2c2cc(F)ccc21` (centres unmarked) [Compound 229, 2-(3-(3,6-Difluoro-9H-carbazol-9-yl)-2-hydroxy-2-methylpropyl)-6-cyclobutyl-1,2,6-thiadiazinane-1,1-dioxide] showed an EC50 of 4980 nM.
For `CS(=O)(=O)N(Cc1cccc(F)c1)CC(O)Cn1c2ccccc2c2ccccc21` (centres unmarked) [Compound 67, N-(3-(9H-Carbazol-9-yl)-2-hydroxypropyl)-N-(3-fluorobenzyl)methanesulfonamide], the EC50 was 3140 nM.
For `Cc1ccccc1N(CC(O)Cn1c2ccccc2c2ccccc21)S(C)(=O)=O` (centres unmarked) [Compound 62, N-(3-(9H-Carbazol-9-yl)-2-hydroxypropyl)-N-o-tolylmethanesulfonamide], the EC50 was 1330 nM.
For `CCCS(=O)(=O)N(Cc1ccco1)CC(O)Cn1c2ccccc2c2ccccc21` (centres unmarked) [Compound 3, N-(3-(9H-Carbazol-9-yl)-2-hydroxypropyl)-N-(furan-2-ylmethyl)propane-1-sulfonamide], the EC50 was 650 nM.
`CS(=O)(=O)N(CC(O)Cn1c2ccccc2c2ccccc21)C1CCCc2ccccc21` (centres unmarked) [Compound 47, N-(3-(9H-Carbazol-9-yl)-2-hydroxypropyl)-N-(1,2,3,4-tetrahydronaphthalen-1-yl)methanesulfonamide] gave an EC50 of 3360 nM.
`CS(=O)(=O)N(CC(O)Cn1c2ccccc2c2ccccc21)CC1CCCC1` (centres unmarked) [Compound 50, N-(3-(9H-Carbazol-9-yl)-2-hydroxypropyl)-N-(cyclopentylmethyl)methanesulfonamide] gave an EC50 of 148 nM.
`CS(=O)(=O)N(CC(O)Cn1c2ccccc2c2ccccc21)CC1CCCCC1` (centres unmarked) [Compound 52, N-(3-(9H-Carbazol-9-yl)-2-hydroxypropyl)-N-(cyclohexylmethyl)methanesulfonamide] gave an EC50 of 306 nM.
Work on `CS(=O)(=O)N(Cc1ccco1)CC(O)Cn1c2cc(F)ccc2c2ccc(F)cc21` (centres unmarked) [Compound 93, N-(3-(2,7-Difluoro-9H-carbazol-9-yl)-2-hydroxypropyl)-N-(furan-2-ylmethyl)methanesulfonamide] yielded an EC50 of 2890 nM.
`CC(C)CS(=O)(=O)N(Cc1ccco1)CC(O)Cn1c2ccccc2c2ccccc21` (centres unmarked) [Compound 13, N-(3-(9H-Carbazol-9-yl)-2-hydroxypropyl)-N-(furan-2-ylmethyl)-2-methylpropane-1-sulfonamide] showed an EC50 of 454 nM.
Work on `O=S1(=O)Cc2ccccc2N1CC(O)Cn1c2ccccc2c2ccccc21` (centres unmarked) [Compound 36, N-(3-(9H-Carbazol-9-yl)-2-hydroxypropyl)-1,3-dihydrobenzo[c]isothiazole 2,2-dioxide] yielded an EC50 of 539 nM.
`CCOCc1ccc(N(CC(O)Cn2c3ccc(F)cc3c3cc(F)ccc32)S(C)(=O)=O)cc1` (centres unmarked) [Compound 208, N-(3-(3,6-Difluoro-9H-carbazol-9-yl)-2-hydroxypropyl)-N-(4-(ethoxymethyl)phenyl)methanesulfonamide] gave an EC50 of 4710 nM.
With `COCCN(CC(O)Cn1c2cc(F)ccc2c2c(F)cccc21)S(C)(=O)=O` (centres unmarked) [Compound 99, N-(3-(2,5-Difluoro-9H-carbazol-9-yl)-2-hydroxypropyl)-N-(2-methoxyethyl)methanesulfonamide] the EC50 was 3550 nM.
For `CC(O)(CN(C1(C)CCCC1)S(C)(=O)=O)Cn1c2ccc(F)cc2c2cc(F)ccc21` (centres unmarked) [Compound 197, N-(3-(3,6-Difluoro-9H-carbazol-9-yl)-2-hydroxy-2-methylpropyl)-N-(1-methylcyclopentyl)methanesulfonamide], the EC50 was 873 nM.
In the case of `CC(O)(CN(Cc1ccco1)S(C)(=O)=O)Cn1c2ccccc2c2ccccc21` (centres unmarked) [Compound 240, N-(3-(9H-Carbazol-9-yl)-2-hydroxy-2-methylpropyl)-N-(furan-2-yl-methyl)methane-sulfonamide], the EC50 is reported as 1060 nM.
In the case of `O=S1(=O)N(CC(O)Cn2c3ccc(F)cc3c3cc(F)ccc32)CCN1C1CCC1` (centres unmarked) [Compound 234], the EC50 is reported as 289 nM.
Compound `O=S1(=O)N(CC(O)Cn2c3ccc(F)cc3c3cc(F)ccc32)CCCN1C1CCC1` (centres unmarked) [Compound 228, 2-(3-(3,6-Difluoro-9H-carbazol-9-yl)-2-hydroxypropyl)-6-cyclobutyl-1,2,6-thiadiazinane-1,1-dioxide] has an EC50 of 3420 nM.
For `CC(O)(CN(C1(C)CC1)S(C)(=O)=O)Cn1c2ccc(F)cc2c2cc(F)ccc21` (centres unmarked) [Compound 189, N-(3-(3,6-Difluoro-9H-carbazol-9-yl)-2-hydroxy-2-methylpropyl)-N-(1-methylcyclopropyl)methanesulfonamide], the EC50 was 1290 nM.
